Where a name gives a salt, the structure may show the parent alone. Read-outs that look alike come from different tables or passages of the source.
Legend:
[1] = biological target: PDK1 (Homo sapiens (Human), UniProt O15530); assay: PDK1 kinase assay (coupled PDK1/AKT/FAM-crosstide assay, IMAP fluorescence polarization); format: biochemical
In short: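 Inhibition is derived by 4-parameter fitting of ΔmP from an IMAP fluorescence polarization read of FAM-crosstide (100 nM) phosphorylation. The cascade ran 30 min at 25 °C with 40 μM ATP, using insect-cell GST-PDK1 51-359 (0.75 nM) driving 10 nM unphosphorylated AKT2 140-467-PIFtide fusion.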

[2] = test system: phospho-akt (Thr308) in PC-3 cells; assay: Inhibition of phospho-akt (Thr308) in PC-3 cells, MSD phospho-akt 308 ELISA kit; format: cell-based; settings: Homo sapiens
In short: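 Phospho-Akt (Thr308) levels were measured by MSD ELISA after PC-3 cells received compound for 2 hours in serum-free medium. Controls: DMSO (high), 5 μM wortmannin (low).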

[3] = inhibition of P308 Akt in PC-3 cells using MSD, 2 hours, no serum, read-out: EC50
[4] = inhibition of phospo-PDK1 in vitro
[5] = inhibition of P308 Akt in PC-3 cells, 2 hours, no serum, MSD, read-out: EC50
[6] = PC-3, 2 h, inhibition of P308 Akt in PC-3 cells, 2 hours, no serum, MSD, read-out: EC50

Sequence of PDK1 (O15530 51-359): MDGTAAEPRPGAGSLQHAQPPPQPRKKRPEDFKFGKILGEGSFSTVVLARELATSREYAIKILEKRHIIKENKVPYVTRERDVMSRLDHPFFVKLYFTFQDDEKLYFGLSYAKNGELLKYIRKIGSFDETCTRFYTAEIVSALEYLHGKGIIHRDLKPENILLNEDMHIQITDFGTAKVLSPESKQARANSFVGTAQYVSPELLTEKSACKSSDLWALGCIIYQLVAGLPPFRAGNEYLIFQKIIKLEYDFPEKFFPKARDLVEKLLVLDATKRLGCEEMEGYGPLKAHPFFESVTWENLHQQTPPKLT

SMILES	IC50 ([1]; inhibition of PDK1 in vitro) [nM]	EC50 [2, 3] [nM]	IC50 [1, 4] [nM]	EC50 [2, 5] [nM]	other results
C[C@H](NC(=O)c1nc(C#N)cnc1N[C@@H](CO)c1ccc(-c2cnc3[nH]nc(N)c3c2)cc1)c1ccc(F)c(F)c1 [Example 351, 3-((R)-1-(4-(3-amino-1H-pyrazolo[3,4-b]pyridin-5-yl)phenyl)-2-hydroxy-ethylamino)-6-cyano-N-((S)-1-(3,4-difluorophenyl)ethyl)pyrazine-2-carboxamide]	1000 to 5000	> 10000			
C[C@H](NC(=O)c1nc(C#N)cnc1NCc1ccc(-c2cn(CCN)c3ncnc(N)c23)cc1)c1ccc(F)c(F)c1 [Example 319, (S)-3-(4-(4-amino-7-(2-aminoethyl)-7H-pyrrolo[2,3-d]pyrimidin-5-yl)benzylamino)-6-cyano-N-(1-(3,4-difluoro-phenyl)ethyl)pyrazine-2-carboxamide]	< 100	< 1000			
C[C@H](NC(=O)c1cc(C#N)cnc1NCc1ccc(-c2cnc(N)c(CCCO)n2)cc1)c1ccc(F)cc1 [Example 91, 2-{4-[5-Amino-6-(3-hydroxy-propyl)-pyrazin-2-yl]-benzyl-amino}-5-cyano-N-[(S)-1-(4-fluoro-phenyl)-ethyl]-nicotinamide]	< 100	< 1000			
C[C@H](NC(=O)c1cc(C#N)cnc1NCc1ccc(-c2cnc3[nH]nc(CCCN(C)C)c3c2)cc1)c1ccc(F)cc1 [Example 149, (S)-5-cyano-2-(4-(3-(3-(dimethylamino)propyl)-1H-pyrazolo[3,4-b]pyridin-5-yl)benzyl-amino)-N-(1-(4-fluorophenyl)ethyl) nicotinamide]	< 100	< 1000			
C[C@H](NC(=O)c1cccnc1NCc1ccc(-c2ccc3ncnc(NC4CC4)c3c2)s1)c1ccc(F)c(F)c1 [Example 386, 2-{[5-(4-Cyclopropylamino-quinazolin-6-yl)-thiophen-2-ylmethyl]-amino}-N-[(S)-1-(3,4-difluoro-phenyl)-ethyl]-nicotinamide]	< 100	1000 to 10000			
C[C@H](NC(=O)c1cc(C#N)cnc1Nc1ccc(-c2c[nH]c3ncnc(N)c23)cc1)c1ccc(F)cc1 [Example 436, (S)-2-(4-(4-amino-7H-pyrrolo[2,3-d]pyrimidin-5-yl)phenylamino)-5-cyano-N-(1-(4-fluorophenyl)ethyl)nicotinamide]	100 to 1000	1000 to 10000			
C[C@H](NC(=O)c1cccnc1NCc1ccc(-c2cc3c(N)ncnc3cn2)s1)c1ccc(F)c(F)c1 [Example 7.16, 2-({[5-(4-aminopyrido[3,4-d]pyrimidin-6-yl)thiophen-2-yl]methyl}amino)-N-[(1S)-1-(3,4-difluorophenyl)ethyl] pyridine-3-carboxamide]			100 to 1000	1000 to 10000	
Nc1ncnc2ccc(-c3ccc(CNc4ncccc4C(=O)N4CCc5ccccc5C4)s3)cc12 [Example 3.34, 2-({[5-(4-aminoquinazolin-6-yl)thiophen-2-yl]methyl}amino)-pyridin-3-yl](3,4-dihydroiso-quinolin-2(1H)-yl)methanone (TFA salt)]			> 5000	1000 to 10000	
Nc1ncc(-c2ccc(CNc3ncc(C(F)(F)F)cc3C(=O)Nc3ccc(F)cc3)cc2)nc1N1CCC[C@H](N)C1 [Example 196]	< 100	< 1000			
CN(Cc1ccc(F)c(F)c1)C(=O)c1nccnc1NCc1ccc(-c2ccc3ncnc(N)c3c2)s1 [Example 3.84, 3-({[5-(4-aminoquinazolin-6-yl)thiophen-2-yl]methyl}amino)-N-(3,4-difluorobenzyl)-N-methylpyrazine-2-carboxamide (TFA salt)]			100 to 1000	1000 to 10000	
CC(C)n1cc(-c2ccc(CNc3ncc(C(F)(F)F)cc3C(=O)Nc3ccc(F)cc3)cc2)c2c(N)ncnc21 [Example 442, 2-(4-(4-amino-7-isopropyl-7H-pyrrolo[2,3-d]pyrimidin-5-yl)benzylamino)-N-(4-fluorophenyl)-5-(trifluoromethyl)nicotinamide]		< 1000	< 100		
C[C@H](NC(=O)c1cccnc1NCc1ccc(-c2ccn3ncnc3c2)s1)c1ccc(F)cc1 [Example 2.5, N-[(1S)-1-(4-fluorophenyl)ethyl]-2-({[5-([1,2,4]triazolo[1,5-a]pyridin-7-yl)thiophen-2-yl)methyl}amino)pyridine-3-carboxamide]			1000 to 5000		EC50 [2, 6]: > 10000 nM
C[C@H](NC(=O)c1nc(C#N)cnc1NCC1CCC(c2cc3c(N)ncnc3n2C)CC1)c1ccc(F)c(F)c1 (stereo partly drawn) [Example 340]	> 5000	1000 to 10000			
C[C@H](NC(=O)c1cccnc1N[C@@H](COc1ccc2[nH]c(=O)[nH]c2c1)c1cccc(Cl)c1)c1ccc(F)c(F)c1 [Example 16.9, 2-((R)-1-(3-chlorophenyl)-2-(2-oxo-2,3-dihydro-1H-benzo[d]imidazol-5-yloxy)ethylamino)-N-((S)-1-(3,4-difluorophenyl)ethyl)nicotinamide]			100 to 1000	< 1000	
O=C(NCc1ccc(F)c(F)c1)c1cccnc1NCc1nc(-c2c[nH]c3ncccc23)cs1 [Ex. 6.11, N-(3,4-difluorobenzyl)-2-({[4-(1H-pyrrolo[2,3-b]pyridin-3-yl)-1,3-thiazol-2-yl]methyl}amino) pyridine-3-carboxamide]			100 to 1000	1000 to 10000	
O=C(NCc1ccc(F)c(F)c1)c1cccnc1NCc1ccc(-c2ccc3ncccc3c2)s1 [Example 4.5, N-(3,4-difluorobenzyl)-2-(((5-(quinolin-6-yl)thiophen-2-yl)methyl)amino)nicotinamide]			< 100	> 10000	
N#Cc1cnc(NCc2ccc(-c3cnc4[nH]nc(N)c4c3)cc2)c(C(=O)Nc2ccc(Cl)cc2)n1 [Example 426, 3-(4-(3-amino-1H-pyrazolo[3,4-b]pyridin-5-yl)benzylamino)-N-(4-chlorophenyl)-6-cyanopyrazine-2-carboxamide]	< 100	< 1000			
C[C@H](NC(=O)c1cc(C#N)cnc1NCc1ccc(-c2ccc3n[nH]c(=O)n3c2)cc1)c1ccc(F)cc1 [Example 145, (S)-5-cyano-N-(1-(4-fluorophenyl)ethyl)-2-(4-(3-oxo-2,3-dihydro-[1,2,4]triazolo[4,3-a]pyridin-6-yl)benzyl-amino)nicotinamide]	> 5000	> 10000			
C[C@@H](c1ccc(F)cc1)n1cnc2ccnc(NCc3ccc(-c4cc5c(N)ncnc5cn4)s3)c2c1=O [Example 7.12, 5-({[5-(4-aminopyrido [3,4-d]pyrimidin-6-yl)thiophen-2-yl]methyl}amino)-3-[(1S)-1-(4-fluorophenyl)ethyl] pyrido[4,3-d]pyrimidin-4(3H)-one]			> 5000	> 10000	
CS(=O)(=O)c1cnc(NCc2ccc(-c3ccc4ncnc(N)c4c3)s2)c(C(=O)NCc2ccc(F)c(F)c2)c1 [Example 8.7.8]			100 to 1000	< 1000	
Nc1ncnc2ccc(-c3ccc(CNc4ncc([N+](=O)[O-])cc4C(=O)NCc4ccc(F)c(F)c4)s3)cc12 [Ex. 8.2, 2-{[5-(4-Amino-quinazolin-6-yl)-thiophen-2-ylmethyl]-amino}-N-(3,4-difluoro-benzyl)-5-nitro-nicotinamide]			< 100	< 1000	
C[C@H](NC(=O)c1nc(C#N)cnc1NCc1ccc(-c2cnc3[nH]nc(N)c3n2)cc1)c1ccc(F)c(F)c1 [Example 182, 3-[4-(3-Amino-1H-pyrazolo[3,4-b]pyrazin-5-yl)-benzylamino]-6-cyano-pyrazine-2-carboxylic acid [(S)-1-(3,4-difluoro-phenyl)-ethyl]-amide]	< 100				EC50 ([2]; PC-3, 2 h): < 1000 nM
C[C@H](NC(=O)c1cc(C#N)cnc1NCc1ccc(-c2cnc(N)c(OCCN)n2)cc1)c1ccc(F)cc1 [Example 165, 2-{4-[5-Amino-6-(2-amino-ethoxy)-pyrazin-2-yl]-benzylamino}-5-cyano-N-[(S)-1-(4-fluoro-phenyl)-ethyl]-nicotinamide]	< 100	< 1000			
Nc1n[nH]c2ncc(-c3ccc(CNc4ncc(C(F)(F)F)cc4C(=O)N[C@@H](CO)c4ccc(Br)cc4)cc3)cc12 [Example 283, (R)-2-(4-(3-amino-1H-pyrazolo [3,4-b]pyridin-5-yl)benzylamino)-N-(1-(4-bromophenyl)-2-hydroxyethyl)-5-(trifluoromethyl)nicotinamide]	> 5000	1000 to 10000			
C/C=C/c1cnc(NCc2ccc(-c3ccc4ncnc(N)c4c3)s2)c(C(=O)NCc2ccc(F)c(F)c2)n1 [Ex. 10.6, 3-({[5-(4-aminoquinazolin-6-yl)thiophen-2-yl]methyl}amino)-N-(3,4-difluorobenzyl)-6-[(1E)-prop-1-en-1-yl] pyrazine-2-carboxamide]			100 to 1000		EC50 [2, 6]: 1000 to 10000 nM
CNS(=O)(=O)c1cnc(NCc2ccc(-c3ccc4ncnc(N)c4c3)s2)c(C(=O)NCc2ccc(F)c(F)c2)c1 [Ex. 8.7.1, 2-(((5-(4-aminoquinazolin-6-yl)thiophen-2-yl)methyl)amino)-N-(3,4-difluorobenzyl)-5-(N-methylsulfamoyl)nicotinamide]			100 to 1000	< 1000	
Nc1ncnc2ccc(-c3ccc(CNc4ncc(NC(=O)Cc5ccccc5)cc4C(=O)NCc4ccc(F)c(F)c4)s3)cc12 [Example 8.5.4, 2-({[5-(4-aminoquinazolin-6-yl)thiophen-2-yl]methyl}amino)-N-(3,4-difluorobenzyl)-5-[(phenylacetyl)amino] pyridine-3-carboxamide]			1000 to 5000	1000 to 10000	

Reference: patent US10030016B2 (Sunesis Pharmaceuticals, Inc., priority 2009, dated 2018)
